Test results from ChEMBL document CHEMBL3301472, “MMV Malaria Box HIV and cytotoxicity screening”.

Key:
Assay type in all cases: toxicity, cell-based
[1] = MMV: MTT Cytotoxicity Assay Day 3 pi, U87-CD4-CCR5 cells, % cell death @ 5mM compound; conditions: human, u87-cd4-ccr5, 5000 µM
[2] = MMV: MTT Cytotoxicity Assay Day 7 pi of Assay #6 (compound washed out Day 1 pi), U87-CD4-CCR5 cells, % cell death @ 5mM compound; conditions: human, u87-cd4-ccr5, 5000 µM
[3] = MMV: MTT Cytotoxicity Assay Day 3 pi, U87-CD4-CXCR4 cells, % cell death @ 5mM compound; conditions: human, u87-cd4-cxcr4, 5000 µM
[4] = MMV: MTT Cytotoxicity Assay Day 7 pi of Assay #7 (compound washed out Day 1 pi), U87-CD4-CXCR4 cells, % cell death @ 5mM compound; conditions: human, u87-cd4-cxcr4, 5000 µM
[5] = MMV: MTT Cytotoxicity Assay Day 7 pi of Assay #10 (NO washout), U87-CD4-CCR5 cells, % cell death @ 5mM compound; conditions: human, u87-cd4-ccr5, 5000 µM
[6] = MMV: MTT Cytotoxicity Assay Day 7 pi of Assay #11 (NO washout), U87-CD4-CXCR4 cells, % cell death @ 5mM compound; conditions: human, u87-cd4-cxcr4, 5000 µM

SMILES	% Cell Death [1]	% Cell Death [2]	% Cell Death [3]	% Cell Death [4]	% Cell Death [5]	% Cell Death [6]
CCN(CC)CCNc1ncnc2c1[nH]c1ccc(Cl)cc12	15	1	30	-31	5	-1
COc1cc(C(=O)ON=C(N)Cc2cccc3ccccc23)cc(OC)c1OC	14	-13	32	4	100	-15
N=c1c2ccccc2nnn1-c1cccc(C(F)(F)F)c1	106	68	99	86	101	112
Cc1c(C)n(Cc2ccc(F)cc2)c2ccc(C(=O)NCc3ccco3)cc12	106	78	95	18	146	103
COc1ccc(-c2cn3c(C(=O)Nc4ccccc4Cl)c(-c4ccccc4)c4c3n2CCCC4)cc1	-20	-4	35	-5	30	-35
COc1ccc(C(O)(CCC(C)C)C(CN2CCOCC2)c2ccc(Cl)cc2)cc1.Cl (stereo not given)	72	48	55	4	102	47
Cc1cc(Nc2ccc(C)c(Cl)c2)n2nc(C(F)(F)F)nc2n1	11	-35	28	-28	42	10
Cc1ccc2nc(C)cc(Nc3cccc(C(F)(F)F)c3)c2c1.Cl	-13	15	38	-9	72	44
COc1ccc(C(=O)C(CCC(CNC(C)(C)C)C(=O)c2ccc(OC)cc2)CNC(C)(C)C)cc1 (stereo not given)	94	27	100	75	137	105
CCOC(=O)c1cnc2c(C)cccc2c1Nc1ccc(C(C)=O)cc1	70	49	76	78	69	80
COc1ccc(-c2c(C)nn3c(N)c(C#N)cnc23)cc1OC	83	93	98	89	124	93
N#Cc1nc(Cc2cccc3ccccc23)oc1N1CCN(C(c2ccccc2)c2ccccc2)CC1	112	78	101	93	109	-30
O=C(Nc1cccc(C(F)(F)F)c1)c1cc(Cl)ccc1O	95	100	70	97	124	95
CN1CCN(c2c3c(c(C#N)c4nc5ccccc5n24)CCC3)CC1	-3	1	-10	-15	8	16
COc1cc2c(cc1OC)C1=NNC(=O)C1=NC(C)(C)C2	107	101	100	95	106	98
COCCNCC(O)Cn1c2ccc(Cl)cc2c2cc(Cl)ccc21 (stereo not given)	29	14	30	-16	28	15
COc1ccccc1CNC(=O)C1c2ccccc2C(=O)N(CC(C)C)C1c1cccs1 (stereo not given)	108	67	23	-8	60	43
COc1cc(-c2nc(-c3ccccc3)c(-c3ccccc3)[nH]2)cc(OC)c1O	104	88	52	84	120	105
Cc1cc(N2CCN(C3CCCC3)CC2)n2c(nc3ccccc32)c1C#N	35	48	44	-24	35	-3
CCOC(=O)C1CCN(C(=O)CN2C(=O)c3ccccc3C2c2c[nH]c3ccccc23)CC1 (stereo not given)	107	52	35	39	109	112
O=C(NCC1Cc2cccc(-c3ccncc3)c2O1)c1csc2c1CCCC2 (stereo not given)	4	7	2	-22	17	60
COc1ccc2nc(C)cc(Nc3ccccc3O)c2c1	5	14	30	-12	6	-34
CCOC(=O)C1=CN(C)C=C(C(=O)OCC)C1c1cc(Br)c(OCC)c(OC)c1	80	37	32	99	103	6
CCN(CC)CCNc1ccnc2cc(Cl)ccc12	4	21	36	-5	17	-13
Cn1c(=O)c2cc(C(=O)NCCCN3CCCCCC3)sc2c2ccccc21	4	35	29	-51	23	29
COc1ccc2c(c1)OC(O)(C(F)(F)C(F)(F)F)CC2=O (stereo not given)	42	37	47	4	62	88
CCOc1ccc2nc(C)cc(Nc3ccc(N(C)C)cc3)c2c1.Cl	-27	-13	57	4	23	0
O=C(Nc1ccc(-c2nc3cc(NC(=O)c4ccc(Cl)cc4)ccc3[nH]2)cc1)c1ccc(Cl)cc1	-28	-14	37	-23	-18	-10
Cc1ccccc1OCCSc1nc2ccc(NC(=O)c3cccs3)cc2s1	110	103	101	81	107	106
COc1ccc2c(c1OC)C(=O)N1c3ccccc3N=C(c3ccc(C)cc3)CC21 (stereo not given)	87	17	72	1	78	102
